Reference: US6610677B2, “Pyrazole compounds useful as protein kinase inhibitors” (Vertex Pharmaceuticals Incorporated, priority 2000, dated 2003)

Tests used:
[1] = target: T1, GSK-3β (AA 1-420) (Homo sapiens, UniProt P49841); assay: Ki determination for the inhibition of GSK-3 (coupled enzyme system); type: biochemical; conditions: 20 μM ATP, 300 μM peptide, 20 nM GSK-3β, 30° C
T1 construct: GSK-3β (AA 1-420)
Outline: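 Pyruvate kinase/lactate dehydrogenase-coupled NADH assay with 20 nM GSK-3β (AA 1-420), 20 μM ATP, 300 μM phosphopeptide HSSPHQS(PO3H2)EDEEE in HEPES pH 7.5, 1.5% DMSO, 30 °C. Compound (12 points, 0.002–30 μM) preincubated 10 min before ATP start; Ki derived from 10-min rates versus inhibitor concentration.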

[2] = target: T2, Aurora-2 (Homo sapiens, UniProt O14965); assay: Ki determination for the inhibition of Aurora-2 (coupled enzyme assay); type: biochemical; conditions: 70 nM Aurora-2, peptide LRRASLG, 30° C
T2 sequence (O14965 1-403): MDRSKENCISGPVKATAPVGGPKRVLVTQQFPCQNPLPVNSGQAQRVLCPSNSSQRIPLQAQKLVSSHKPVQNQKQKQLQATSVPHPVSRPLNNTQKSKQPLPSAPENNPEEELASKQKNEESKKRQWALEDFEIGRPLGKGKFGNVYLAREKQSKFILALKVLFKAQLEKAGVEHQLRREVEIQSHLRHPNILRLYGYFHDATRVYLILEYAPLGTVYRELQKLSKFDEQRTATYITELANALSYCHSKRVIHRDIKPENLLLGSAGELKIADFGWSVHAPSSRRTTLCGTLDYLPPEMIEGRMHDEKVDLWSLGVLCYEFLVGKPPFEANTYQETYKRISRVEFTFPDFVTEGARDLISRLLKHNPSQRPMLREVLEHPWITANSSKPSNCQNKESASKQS
Outline: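 Ki came from reaction rates plotted against inhibitor concentration, with rates taken as A340 decrease over 5 min at 30° C. Enzyme (70 nM final) was added after 10 min compound preincubation; stock buffer held […], 800 μM LRRASLG, PK/LDH coupling, pH 7.5.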

[3] = target: activated ERK2 (Homo sapiens, UniProt P28482); assay: ERK inhibition assay (spectrophotometric coupled-enzyme assay); type: biochemical; conditions: 10 nM activated ERK2, 65 μM ATP, 200 μM erktide; read-out: Ki value for ERK-2
Description: Compounds were assayed for the inhibition of ERK2 by a spectrophotometric coupled-enzyme assay (Fox et al (1998) Protein Sci 7, 2249). In this assay, a fixed concentration of activated ERK2 (10 nM) was incubated with various concentrations of the compound in DMSO (2.5%) for 10 min. at 30° C. in 0.1 M HEPES buffer, pH 7.5, containing 10 mM MgCl2, 2.5 mM phosphoenolpyruvate, 200 μM NADH, 150 μg/mL pyruvate kinase, 50 μg/mL lactate dehydrogenase, and 200 μM erktide peptide. The reaction was initiated by the addition of 65 μM ATP. The rate of decrease of absorbance at […] was monitored. The IC50 was evaluated from the rate data as a function of inhibitor concentration.

[4] = target: T3, human Src kinase (Homo sapiens, UniProt P12931); assay: SRC inhibition assay (radioactivity-based or spectrophotometric assay); type: biochemical; conditions: assay A or B not specified; read-out: Ki value on SRC
T3 construct: full length recombinant human Src kinase; purchased Upstate Biotechnology 14-117; host or cells: baculo viral cells (baculovirus expression system)
Description: The compounds were evaluated as inhibitors of human Src kinase using either a radioactivity-based assay or spectrophotometric assay. The compounds were assayed as inhibitors of full length recombinant human Src kinase (from Upstate Biotechnology, cat. no. 14-117) expressed and purified from baculo viral cells. […] P-0275). […] In a typical assay, all the reaction components with the exception of ATP were pre-mixed and aliquoted into assay plate wells. Inhibitors dissolved in DMSO were added to the wells to give a final DMSO concentration of 2.5%. The assay plate was incubated at 30° C. for 10 min before initiating the reaction with ^33P-ATP. After 20 min of reaction, the reactions were quenched with 150 μl of 10% trichloroacetic acid (TCA) containing 20 mM Na3PO4. The quenched samples were then transferred to a 96-well filter plate (Whatman, UNI-Filter GF/F Glass Fiber Filter, cat no. 7700-3310) installed on a filter plate vacuum manifold. Filter plates were washed four times with 10% TCA containing 20 mM Na3PO4 and then 4 times with methanol. 200 μl of scintillation fluid was then added to each well. The plates were sealed and the amount of radioactivity associated with the filters was quantified on a TopCount scintillation counter. The radioactivity incorporated was plotted as a function of the inhibitor concentration. The data was fitted to a competitive inhibition kinetics model to get the Ki for the compound. The ADP produced from ATP by the human recombinant Src kinase-catalyzed phosphorylation of poly Glu-Tyr substrate was quanitified using a coupled enzyme assay (Fox et al (1998) Protein Sci 7, 2249). In this assay one molecule of NADH is oxidised to NAD for every molecule of ADP produced in the kinase reaction. The disappearance of NADH can be conveniently followed at 340 nm. […] In a typical assay, all the reaction components with the exception of ATP were pre-mixed and aliquoted into assay plate wells. Inhibitors dissolved in DMSO were added to the wells to give a final DMSO concentration of 2.5%. […] The absorbance change at 340 nm with time, the rate of the reaction, was monitored on a molecular devices plate reader. The data of rate as a function of the inhibitor concentration was fitted to compettive inhibition kinetics model to get the Ki for the compound.

T3 sequence (P12931 whole entry): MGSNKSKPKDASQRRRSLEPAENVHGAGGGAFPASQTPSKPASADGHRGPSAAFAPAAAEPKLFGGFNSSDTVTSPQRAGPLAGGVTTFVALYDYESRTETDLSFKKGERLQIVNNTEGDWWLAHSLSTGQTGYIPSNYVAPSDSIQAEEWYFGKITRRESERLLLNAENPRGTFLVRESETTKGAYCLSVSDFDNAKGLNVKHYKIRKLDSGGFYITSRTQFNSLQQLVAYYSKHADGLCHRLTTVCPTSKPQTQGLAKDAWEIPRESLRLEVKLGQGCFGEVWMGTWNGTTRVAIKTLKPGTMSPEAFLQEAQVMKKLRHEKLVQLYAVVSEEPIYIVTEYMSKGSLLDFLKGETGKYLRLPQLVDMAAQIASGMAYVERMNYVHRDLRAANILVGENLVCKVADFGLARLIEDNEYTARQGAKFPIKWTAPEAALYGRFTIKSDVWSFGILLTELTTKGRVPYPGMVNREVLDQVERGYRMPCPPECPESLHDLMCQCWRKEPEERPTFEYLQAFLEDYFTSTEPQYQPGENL
Chain of activated ERK2 (P28482 whole entry): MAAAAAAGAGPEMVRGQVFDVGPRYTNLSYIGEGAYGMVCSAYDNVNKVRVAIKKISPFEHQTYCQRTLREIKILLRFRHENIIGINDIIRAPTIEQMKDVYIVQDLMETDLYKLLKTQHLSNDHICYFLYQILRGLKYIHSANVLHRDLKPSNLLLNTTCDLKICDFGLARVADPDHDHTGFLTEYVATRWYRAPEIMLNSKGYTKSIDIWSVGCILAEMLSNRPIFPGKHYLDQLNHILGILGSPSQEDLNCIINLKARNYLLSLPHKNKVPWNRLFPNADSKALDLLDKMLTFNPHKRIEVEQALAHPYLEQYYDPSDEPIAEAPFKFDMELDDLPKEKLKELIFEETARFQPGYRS
T1 sequence (P49841 whole entry, the tested form may be a part): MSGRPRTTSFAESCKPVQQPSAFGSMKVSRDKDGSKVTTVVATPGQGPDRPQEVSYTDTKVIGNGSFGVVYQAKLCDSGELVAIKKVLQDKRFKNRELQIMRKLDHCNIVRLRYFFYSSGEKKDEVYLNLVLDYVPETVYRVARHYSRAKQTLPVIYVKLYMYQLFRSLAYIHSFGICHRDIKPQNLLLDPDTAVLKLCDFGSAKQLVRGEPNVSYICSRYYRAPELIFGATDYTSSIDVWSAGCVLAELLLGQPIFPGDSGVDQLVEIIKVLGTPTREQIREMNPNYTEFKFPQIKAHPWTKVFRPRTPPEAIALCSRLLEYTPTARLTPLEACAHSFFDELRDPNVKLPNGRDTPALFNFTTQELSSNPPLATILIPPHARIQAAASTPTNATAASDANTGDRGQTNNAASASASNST

| Ki [1] [µM] | melting point [°C] | Ki [2] [µM] | Ki [3] [µM] | Ki [4] [µM] | Structure (SMILES) |
| --- | --- | --- | --- | --- | --- |
| 0.1 to 1 | 131 | < 0.1 | < 1 |  | OC1(c2ccccc2)CCN(c2nc(Nc3cc(C4CC4)n[nH]3)c3ccccc3n2)CC1 [III-115, (5-Cyclopropyl-2H-pyrazol-3-yl)-[2-(4-hydroxy-4-phenylpiperidin-1-yl)-quinazolin-4-yl]-amine] |
| < 0.1 | 218 to 219 | < 0.1 | 1 to 12 | < 0.1 | c1ccc(-c2nc(Nc3cc(C4CC4)n[nH]3)c3ccccc3n2)cc1 [III-40, (5-Cyclopropyl-2H-pyrazol-3-yl)-(2-phenyl-quinazolin-4-yl)-amine] |
| < 0.1 | 247 to 249 | < 0.1 | 1 to 12 |  | c1ccc(-c2nc(Nc3ccn[nH]3)c3ccccc3n2)cc1 [III-63, (2-Phenyl-quinazolin-4-yl)-(2H-pyrazol-3-yl)-amine] |
| < 0.1 | 294 | < 0.1 | 1 to 12 |  | Cc1cc(Nc2nc(N3CCCCC3)nc3ccccc23)[nH]n1 [III-108, (5-Methyl-2H-pyrazol-3-yl)-(2-piperidin-1-yl-quinazolin-4-yl)-amine] |
| < 0.1 | 199 to 200 | < 0.1 | < 1 |  | c1ccc2c(Nc3cc(C4CC4)n[nH]3)nc(N3CCCCCC3)nc2c1 [III-117] |
| < 0.1 | 142 | < 0.1 | < 1 |  | OCC1CCN(c2nc(Nc3cc(C4CC4)n[nH]3)c3ccccc3n2)CC1 [III-120, (5-Cyclopropyl-2H-pyrazol-3-yl)-[2-(4-hydroxymethylpiperidin-1-yl)-quinazolin-4-yl]-amine] |
| < 0.1 | 182 to 184 | < 0.1 | < 1 |  | c1ccc2c(c1)CCN(c1nc(Nc3cc(C4CC4)n[nH]3)c3ccccc3n1)C2 [III-118, (5-Cyclopropyl-2H-pyrazol-3-yl)-[2-(3,4-dihydro-1H-isoquinolin-2-yl)-quinazolin-4-yl]-amine] |
| < 0.1 | 204 to 207 | < 0.1 |  | < 0.1 | C#Cc1cccc(-c2nc(Nc3cc(C)n[nH]3)c3ccccc3n2)c1 [III-49, [2-(3-Ethynylphenyl)-quinazolin-4-yl]-(5-methyl-2H-pyrazol-3-yl)-amine] |
| < 0.1 | 269 | < 0.1 | < 1 |  | Cc1cc(Nc2nc(N3CCCCCC3)nc3ccccc23)[nH]n1 [III-109] |
| < 0.1 | 226 | < 0.1 |  | < 0.1 | COc1cccc(-c2nc(Nc3cc(C)n[nH]3)c3ccccc3n2)c1 [III-45, [2-(3-Methoxyphenyl)-quinazolin-4-yl]-(5-methyl-2H-pyrazol-3-yl)-amine] |
| < 0.1 | 221 to 222 | < 0.1 |  | < 0.1 | CCc1cc(Nc2nc(-c3ccccc3)nc3ccccc23)[nH]n1 [III-65] |
| < 0.1 | 240 to 241 | < 0.1 |  | < 0.1 | c1ccc(-c2nc(Nc3cc(C4CCCC4)n[nH]3)c3ccccc3n2)cc1 [III-70, (5-Cyclopentyl-2H-pyrazol-3-yl)-(2-phenyl-quinazolin-4-yl)-amine] |
| < 0.1 | 274 | < 0.1 |  | < 0.1 | Cc1cc(Nc2nc(-c3ccc(Cl)c(Cl)c3)nc3ccccc23)[nH]n1 [III-33, [2-(3,4-Dichlorophenyl)-quinazolin-4-yl]-(5-methyl-2H-pyrazol-3-yl)-amine] |
| 0.1 to 1 | 177 to 178 | < 0.1 |  | < 0.1 | c1ccc(COCCCc2cc(Nc3nc(-c4ccccc4)nc4ccccc34)[nH]n2)cc1 [III-78, [5-(3-Benzyloxyprop-1-yl)-2H-pyrazol-3-yl]-(2-phenyl-quinazolin-4-yl)-amine] |
| < 0.1 |  | < 0.1 | < 1 |  | CC1CCN(c2nc(Nc3cc(C4CC4)n[nH]3)c3ccccc3n2)CC1 [III-111, (5-Cyclopropyl-2H-pyrazol-3-yl)-[2-(4-methylpiperidin-1-yl)-quinazolin-4-yl]-amine] |
| < 0.1 | 262 to 265 | < 0.1 |  | < 0.1 | Cc1cc(Nc2nc(-c3ccc(Br)cc3)nc3ccccc23)[nH]n1 [III-34, [2-(4-Bromophenyl)-quinazolin-4-yl]-(5-methyl-2H-pyrazol-3-yl)-amine] |
| < 0.1 | 234 to 235 | < 0.1 |  | < 0.1 | Cc1cc(Nc2nc(-c3cccc(I)c3)nc3ccccc23)[nH]n1 [III-38, [2-(3-Iodophenyl)-quinazolin-4-yl]-(5-methyl-2H-pyrazol-3-yl)-amine] |
